Experimental data: ChEMBL document CHEMBL3352264, “Synthesis and structure-activity relationships of new carbonyl guanidine derivatives as novel dual 5-HT₂B and 5-HT₇ receptor antagonists. Part 2” (Bioorg Med Chem, 2014)
Activity calls are given as the source filed them. The calls are words filed in the database; no cut-off is given here.

Experiments:
[1] = target: T1, 5-hydroxytryptamine receptor 2B (Homo sapiens, UniProt P41595); assay: Displacement of [3H]Mesulergine from human 5-HT2B receptor expressed in HEK293-EBNA cells by liquid scintillation counting; assay type: cell-based
[2] = target: T2, 5-hydroxytryptamine receptor 7 (Homo sapiens, UniProt P34969); assay: Displacement of [3H]HT from human 5-HT7 receptor expressed in CHO cells by liquid scintillation counting; assay type: cell-based
Mus musculus [3] = assay: Reversal of 5-carboxamidotryptamine-incued hypothermia in po dosed ddY mouse measured after 60 mins of treatment; assay type: functional; conditions: 1 h, read-out: MED
Mus musculus [4] = assay: Hypothermic effect in po dosed ddY mouse measured after 60 mins of treatment; assay type: ADME, organism-based; conditions: in vivo, 1 h
[5] = target: T3, Muscarinic acetylcholine receptor M1 (Homo sapiens, UniProt P11229); assay: Binding affinity to muscarinic M1 receptor (unknown origin)
T3 sequence (P11229 whole entry): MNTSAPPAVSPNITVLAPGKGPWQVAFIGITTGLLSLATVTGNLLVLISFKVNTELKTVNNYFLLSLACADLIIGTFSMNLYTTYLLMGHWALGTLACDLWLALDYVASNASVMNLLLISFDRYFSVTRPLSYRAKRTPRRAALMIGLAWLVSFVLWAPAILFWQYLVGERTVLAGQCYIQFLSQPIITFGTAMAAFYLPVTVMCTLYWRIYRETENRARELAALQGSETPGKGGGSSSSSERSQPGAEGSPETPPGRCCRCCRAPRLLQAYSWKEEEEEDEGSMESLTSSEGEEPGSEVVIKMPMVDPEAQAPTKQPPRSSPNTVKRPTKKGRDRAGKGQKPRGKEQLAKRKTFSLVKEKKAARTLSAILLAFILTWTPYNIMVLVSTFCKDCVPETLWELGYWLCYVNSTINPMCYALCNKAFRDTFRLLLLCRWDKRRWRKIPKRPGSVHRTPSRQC

[6] = target: 5-hydroxytryptamine receptor 2A (Homo sapiens, UniProt P28223); assay: Binding affinity to 5-HT2A receptor (unknown origin)
[7] = target: T2, 5-hydroxytryptamine receptor 7; assay: Inhibition of human 5-HT7 receptor expressed in CHO cells assessed as cAMP production by EIA system; assay type: functional, cell-based
[8] = target: T4, 5-hydroxytryptamine receptor 2C (Homo sapiens, UniProt P28335); assay: Binding affinity to 5-HT2C receptor (unknown origin)
T4 sequence (P28335 whole entry): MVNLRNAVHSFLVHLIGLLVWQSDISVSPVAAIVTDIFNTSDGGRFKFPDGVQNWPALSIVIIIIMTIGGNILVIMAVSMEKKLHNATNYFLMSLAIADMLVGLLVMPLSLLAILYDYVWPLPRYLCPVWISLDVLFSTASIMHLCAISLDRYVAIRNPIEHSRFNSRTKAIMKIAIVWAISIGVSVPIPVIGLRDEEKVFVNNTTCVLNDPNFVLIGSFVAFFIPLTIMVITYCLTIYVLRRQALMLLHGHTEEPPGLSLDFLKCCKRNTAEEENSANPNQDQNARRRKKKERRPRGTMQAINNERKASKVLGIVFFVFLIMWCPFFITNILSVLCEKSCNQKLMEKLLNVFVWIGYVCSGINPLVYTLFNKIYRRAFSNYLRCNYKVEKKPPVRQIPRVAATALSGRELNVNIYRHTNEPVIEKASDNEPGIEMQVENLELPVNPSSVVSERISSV

D(2) dopamine receptor = D(2) dopamine receptor (Homo sapiens, UniProt P14416); assay: Binding affinity to dopamine D2 receptor (unknown origin)
[9] = target: T5, Adrenergic receptor alpha-1 (Homo sapiens, UniProt P35348+P25100+P35368); assay: Binding affinity to alpha-1 adrenergic receptor (unknown origin)
T5 sequence (P35348 whole entry): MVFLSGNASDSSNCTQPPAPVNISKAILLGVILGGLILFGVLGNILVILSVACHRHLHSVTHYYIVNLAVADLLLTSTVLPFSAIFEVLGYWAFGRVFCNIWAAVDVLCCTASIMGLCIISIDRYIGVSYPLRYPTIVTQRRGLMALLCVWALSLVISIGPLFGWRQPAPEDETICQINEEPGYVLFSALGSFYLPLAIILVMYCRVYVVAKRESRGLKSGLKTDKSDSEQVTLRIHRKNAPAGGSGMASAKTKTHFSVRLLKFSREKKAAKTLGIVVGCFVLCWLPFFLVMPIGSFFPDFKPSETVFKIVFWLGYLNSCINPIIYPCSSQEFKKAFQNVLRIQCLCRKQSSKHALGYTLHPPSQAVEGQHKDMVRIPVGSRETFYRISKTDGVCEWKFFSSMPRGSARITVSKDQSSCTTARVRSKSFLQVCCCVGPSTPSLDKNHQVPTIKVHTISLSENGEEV
T5 sequence (P25100 whole entry): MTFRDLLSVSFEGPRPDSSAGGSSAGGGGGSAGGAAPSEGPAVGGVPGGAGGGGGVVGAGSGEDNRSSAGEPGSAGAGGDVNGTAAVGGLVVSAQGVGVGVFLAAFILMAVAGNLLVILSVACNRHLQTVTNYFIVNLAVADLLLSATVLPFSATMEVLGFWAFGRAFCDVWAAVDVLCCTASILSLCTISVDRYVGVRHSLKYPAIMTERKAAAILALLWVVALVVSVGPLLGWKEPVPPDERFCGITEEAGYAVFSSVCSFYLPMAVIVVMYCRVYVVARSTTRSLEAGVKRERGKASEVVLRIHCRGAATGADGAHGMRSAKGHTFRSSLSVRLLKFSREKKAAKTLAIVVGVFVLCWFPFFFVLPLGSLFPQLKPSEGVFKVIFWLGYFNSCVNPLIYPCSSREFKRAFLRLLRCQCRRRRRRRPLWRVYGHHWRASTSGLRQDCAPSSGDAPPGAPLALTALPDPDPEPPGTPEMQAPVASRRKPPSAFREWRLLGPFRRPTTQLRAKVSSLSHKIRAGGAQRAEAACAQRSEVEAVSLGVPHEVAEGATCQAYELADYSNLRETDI
T5 sequence (P35368 whole entry): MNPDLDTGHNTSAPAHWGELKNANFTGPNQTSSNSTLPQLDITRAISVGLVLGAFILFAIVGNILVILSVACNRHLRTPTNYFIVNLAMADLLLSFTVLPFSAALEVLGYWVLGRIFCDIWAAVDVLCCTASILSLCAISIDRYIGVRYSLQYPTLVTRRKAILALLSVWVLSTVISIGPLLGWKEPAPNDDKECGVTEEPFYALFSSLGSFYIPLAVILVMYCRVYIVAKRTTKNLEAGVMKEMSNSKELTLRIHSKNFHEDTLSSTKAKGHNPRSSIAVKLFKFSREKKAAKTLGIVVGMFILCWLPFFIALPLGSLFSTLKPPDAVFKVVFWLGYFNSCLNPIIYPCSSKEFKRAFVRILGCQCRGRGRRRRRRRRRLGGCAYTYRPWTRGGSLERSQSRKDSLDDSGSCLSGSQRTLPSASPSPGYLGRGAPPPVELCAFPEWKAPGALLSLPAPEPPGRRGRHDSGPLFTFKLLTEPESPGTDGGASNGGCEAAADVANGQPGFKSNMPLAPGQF

[10] = target: T1, 5-hydroxytryptamine receptor 2B; assay: Inhibition of human 5-HT2B receptor expressed in HEK293-EBNA cells assessed as [3H]PI metabolism by liquid scintillation counting; assay type: cell-based
Cavia porcellus [11] = assay: Suppression of 5-HT-induced dural plasma protein extravasation in Hartley guinea pig at 30 mg/kg, po after 16 hrs; assay type: functional, organism-based; design: dose 30 mg/kg
Cavia porcellus [12] = assay: Suppression of 5-HT-induced dural plasma protein extravasation in po dosed Hartley guinea pig after 16 hrs; assay type: functional, organism-based

T1 sequence (P41595 whole entry): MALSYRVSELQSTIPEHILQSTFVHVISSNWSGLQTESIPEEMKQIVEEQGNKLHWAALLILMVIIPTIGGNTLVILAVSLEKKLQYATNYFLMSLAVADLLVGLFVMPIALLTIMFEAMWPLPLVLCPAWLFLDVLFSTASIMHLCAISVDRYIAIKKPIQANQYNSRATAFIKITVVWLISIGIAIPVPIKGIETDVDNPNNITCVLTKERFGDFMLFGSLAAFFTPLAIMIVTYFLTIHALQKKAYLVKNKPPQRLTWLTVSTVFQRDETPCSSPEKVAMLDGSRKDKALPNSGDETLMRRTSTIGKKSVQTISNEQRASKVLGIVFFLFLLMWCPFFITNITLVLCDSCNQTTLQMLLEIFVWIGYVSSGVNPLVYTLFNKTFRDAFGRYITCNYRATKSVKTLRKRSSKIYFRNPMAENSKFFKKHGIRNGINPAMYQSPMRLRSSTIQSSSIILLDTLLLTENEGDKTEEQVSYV
T2 sequence (P34969 whole entry): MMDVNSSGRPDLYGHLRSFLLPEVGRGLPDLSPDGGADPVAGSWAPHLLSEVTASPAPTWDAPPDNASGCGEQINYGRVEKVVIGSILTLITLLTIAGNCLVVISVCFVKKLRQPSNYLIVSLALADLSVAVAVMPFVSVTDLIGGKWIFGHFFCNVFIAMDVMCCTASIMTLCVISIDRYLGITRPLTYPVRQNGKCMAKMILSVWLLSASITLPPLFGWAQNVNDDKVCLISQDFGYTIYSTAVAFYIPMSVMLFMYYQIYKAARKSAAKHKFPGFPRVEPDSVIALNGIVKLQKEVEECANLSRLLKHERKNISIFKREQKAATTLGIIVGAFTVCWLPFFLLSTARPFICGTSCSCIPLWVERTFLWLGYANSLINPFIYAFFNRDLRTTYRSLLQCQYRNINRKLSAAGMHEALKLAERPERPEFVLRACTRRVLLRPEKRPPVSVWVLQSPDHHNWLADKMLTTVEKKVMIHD
5-hydroxytryptamine receptor 2A, sequence (P28223 whole entry): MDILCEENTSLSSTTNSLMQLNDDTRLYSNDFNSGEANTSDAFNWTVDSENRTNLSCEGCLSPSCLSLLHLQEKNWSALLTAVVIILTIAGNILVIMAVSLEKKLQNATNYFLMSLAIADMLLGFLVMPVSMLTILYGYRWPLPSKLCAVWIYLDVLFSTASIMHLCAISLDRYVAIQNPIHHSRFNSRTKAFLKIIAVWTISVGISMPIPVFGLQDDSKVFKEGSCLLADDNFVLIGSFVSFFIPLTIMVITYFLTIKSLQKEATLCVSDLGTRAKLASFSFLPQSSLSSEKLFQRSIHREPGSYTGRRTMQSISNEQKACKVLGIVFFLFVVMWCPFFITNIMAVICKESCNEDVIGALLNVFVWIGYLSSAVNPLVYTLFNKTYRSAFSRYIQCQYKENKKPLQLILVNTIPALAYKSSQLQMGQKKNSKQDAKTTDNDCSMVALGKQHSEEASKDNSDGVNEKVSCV
D(2) dopamine receptor, sequence (P14416 whole entry): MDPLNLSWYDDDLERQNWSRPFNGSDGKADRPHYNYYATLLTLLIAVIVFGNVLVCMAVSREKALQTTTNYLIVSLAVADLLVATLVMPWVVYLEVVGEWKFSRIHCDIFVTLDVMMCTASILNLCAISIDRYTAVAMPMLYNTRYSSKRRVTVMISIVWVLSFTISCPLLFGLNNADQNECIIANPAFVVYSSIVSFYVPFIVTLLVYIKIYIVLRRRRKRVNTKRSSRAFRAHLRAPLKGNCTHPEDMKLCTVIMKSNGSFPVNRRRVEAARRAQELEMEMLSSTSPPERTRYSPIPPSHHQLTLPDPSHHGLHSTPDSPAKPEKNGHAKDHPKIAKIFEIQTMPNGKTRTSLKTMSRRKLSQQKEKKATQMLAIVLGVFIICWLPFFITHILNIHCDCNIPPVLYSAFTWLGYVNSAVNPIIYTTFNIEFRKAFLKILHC

| Compound | Ki [1] [nM] | Ki [2] [nM] | further results |
| --- | --- | --- | --- |
| N=C(N)NC(=O)c1ccc2c(c1)C(F)c1ccccc1-2 (stereo not given) | 0.9 | 57 | – |
| CC(=O)NC1c2ccccc2-c2ccc(C(=O)N=C(N)N)cc21 (stereo not given) | 34 | 180 | – |
| Cc1cccc2c1C(O)c1cc(C(=O)N=C(N)N)ccc1-2 (stereo not given) | 0.67 | 87 | – |
| Cc1cccc2c1-c1ccc(C(=O)N=C(N)N)cc1C2(C)O.Cl (stereo not given) | 1.1 | 4 | minimal effective dose (Mus musculus [3]): > 30 mg/kg |
| NC(N)=NC(=O)c1ccc2c(c1)C(O)c1cc(Cl)ccc1-2 (stereo not given) | 1.7 | > 1000 | – |
| CC1c2ccccc2-c2ccc(C(=O)N=C(N)N)cc21.Cl (stereo not given) | 4.4 | 4.1 | Activity (Mus musculus [4]): Toxic |
| CC1(O)c2ccccc2-c2ccc(C(=O)N=C(N)N)cc21.Cl (stereo not given) | 4.3 | 4.3 | Ki [5]: > 1000 nM; Ki [6]: > 1000 nM; IC50 [7]: 59 nM; Ki [8]: 390 nM; Ki (D(2) dopamine receptor): > 1000 nM; Ki [9]: > 1000 nM; IC50 [10]: 52 nM; minimal effective dose (Mus musculus [3]): 30 mg/kg; inhibition (Cavia porcellus [11]): Active; inhibition (Cavia porcellus [12]): Dose-dependent effect |
| NC(N)=NC(=O)c1ccc2c(c1)C(O)c1ccccc1-2 (stereo not given) | – | – | minimal effective dose (Mus musculus [3]): > 30 mg/kg |
| NC(N)=NC(=O)c1ccc2c(c1)C(N)c1ccccc1-2 (stereo not given) | 18 | 43 | – |
| NC(N)=NC(=O)c1ccc2c(c1)C(O)c1c(Cl)cccc1-2 (stereo not given) | 0.11 | 33 | – |
| CCc1cccc2c1-c1ccc(C(=O)N=C(N)N)cc1C2(C)O.Cl (stereo not given) | 0.71 | 2.3 | minimal effective dose (Mus musculus [3]): > 30 mg/kg |

Now from value to compound, other results behind:

| Ki [1] [nM] | Ki [2] [nM] | Compound | further results |
| --- | --- | --- | --- |
| 0.91 | 29 | NC(N)=NC(=O)c1ccc2c(c1)C(O)c1cccc(F)c1-2 (stereo not given) | – |
| 6.6 | 41 | NC(N)=NC(=O)c1ccc2c(c1)C(O)c1cccc(CO)c1-2 (stereo not given) | – |
| 1.5 | 41 | NC(N)=NC(=O)c1ccc2c(c1)C(O)c1cccc(Cl)c1-2 (stereo not given) | – |
| 1.6 | 4.1 | CCc1cccc2c1-c1ccc(C(=O)N=C(N)N)cc1C2O (stereo not given) | minimal effective dose (Mus musculus [3]): > 30 mg/kg |
| 0.81 | 14 | Cc1cccc2c1-c1ccc(C(=O)N=C(N)N)cc1C2O.Cl (stereo not given) | Activity (Mus musculus [4]): Toxic |
| 11 | 160 | NC(N)=NC(=O)c1ccc2c(c1)C(O)c1ccc(Cl)cc1-2 (stereo not given) | – |
| 6.3 | 50 | COCc1cccc2c1-c1ccc(C(=O)N=C(N)N)cc1C2O (stereo not given) | – |
